Tests used:
[1] = biological target: T1, panel of 442 kinases (Homo sapiens, UniProt Q14164); format: binding; conditions: Compound Concentration 10 µM
T1 construct: purchased KINOMEscan
T1 sequence (Q14164 1-716): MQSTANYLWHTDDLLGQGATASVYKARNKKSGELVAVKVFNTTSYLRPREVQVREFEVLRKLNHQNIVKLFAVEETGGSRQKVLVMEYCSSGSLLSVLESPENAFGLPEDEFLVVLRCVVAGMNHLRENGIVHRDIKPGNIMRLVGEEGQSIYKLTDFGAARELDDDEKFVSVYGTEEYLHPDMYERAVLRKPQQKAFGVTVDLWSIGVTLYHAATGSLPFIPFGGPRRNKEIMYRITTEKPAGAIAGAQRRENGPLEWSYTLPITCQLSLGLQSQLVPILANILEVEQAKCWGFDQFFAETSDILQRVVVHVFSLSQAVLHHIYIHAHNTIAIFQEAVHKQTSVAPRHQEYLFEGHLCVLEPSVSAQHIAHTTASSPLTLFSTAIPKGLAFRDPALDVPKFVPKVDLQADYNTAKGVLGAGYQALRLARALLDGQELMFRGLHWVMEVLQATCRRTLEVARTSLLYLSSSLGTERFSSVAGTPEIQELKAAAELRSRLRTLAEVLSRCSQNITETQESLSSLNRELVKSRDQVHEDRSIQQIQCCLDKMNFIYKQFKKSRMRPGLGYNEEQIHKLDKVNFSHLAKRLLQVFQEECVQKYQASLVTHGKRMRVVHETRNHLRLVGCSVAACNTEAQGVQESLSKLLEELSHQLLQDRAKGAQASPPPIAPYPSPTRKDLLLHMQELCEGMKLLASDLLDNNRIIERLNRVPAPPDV
Description: (§1) We assessed the selectivity of members of this scaffold using the KINOMEscan methodology across a near comprehensive panel of 442 kinases [[18,27]].

[2] = biological target: T2, panel of 442 kinases (Homo sapiens, UniProt P46734); format: binding; conditions: Compound Concentration 10 µM
T2 construct: purchased KINOMEscan
T2 sequence (P46734 1-347): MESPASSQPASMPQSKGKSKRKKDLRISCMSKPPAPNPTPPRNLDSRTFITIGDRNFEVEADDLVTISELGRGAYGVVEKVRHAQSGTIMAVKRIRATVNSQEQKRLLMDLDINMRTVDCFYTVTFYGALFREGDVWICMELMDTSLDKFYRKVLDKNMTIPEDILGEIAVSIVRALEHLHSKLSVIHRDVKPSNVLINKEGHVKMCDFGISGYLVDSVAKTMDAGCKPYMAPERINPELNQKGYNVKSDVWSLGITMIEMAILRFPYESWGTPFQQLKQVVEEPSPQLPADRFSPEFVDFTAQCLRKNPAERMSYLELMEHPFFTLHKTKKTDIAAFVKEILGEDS
Description: as §1

| Compound | KINOMEscan: IKK-epsilon [1] | KINOMEscan: MEK3 [2] |
| --- | --- | --- |
| COc1cc(C(=O)N2CCC(N3CCN(C)CC3)CC2)ccc1Nc1ncc2c(n1)N(C)c1ccccc1C(=O)N2C [15 (LRRK2-IN-1)] | 96 | 75 |
| CCOc1cc(C(=O)N2CCC(N3CCN(C)CC3)CC2)ccc1Nc1ncc2c(n1)N(C1CCCC1)c1ccccc1C(=O)N2C [Compound 26] | 100 | 86 |
| COc1cc(C(=O)N2CCC(N3CCN(C)CC3)CC2)ccc1Nc1ncc2c(n1)N1CCc3cccc(c31)C(=O)N2C [Compound 24] | – | 65 |
| COc1cc(C(=O)N2CCC(N3CCN(C)CC3)CC2)ccc1Nc1ncc2c(n1)N(C1CCCC1)c1ccccc1C(=O)N2C [Compound 25, 11-cyclopentyl-2-((2-methoxy-4-(4-(4-methylpiperazin-1-yl)piperidine-1-carbonyl)phenyl)amino)-5-methyl-5H-benzo[e]pyrimido[5,4-b][1,4]diazepin-6(11H)-one] | 100 | 73 |

— PMC3914206
